The values that follow come from patent US6579882B2, “Cell adhesion-inhibiting antiinflammatory compounds” (Abbott Laboratories, priority 1998, dated 2003).

The subject of one data set is VCAM-1. Description: CAM ELISA: VCAM-1 expression on TNF-stimulated HUVECs. Type of data set: cell-based. To be noted: 1 μM compound, primary human umbilical vein endothelial cells, compound 24 hours, then TNF 5 ng/mL 6 hours; for inhibition at 1 µM: Homo sapiens, Endothelial cell. The method, then: (§1) Pooled primary human umbilical vein endothelial cells (HtVEC's) (Clonetics) between passages 3 and 7 were plated in 96-well plates (Costar), 100 μL/well, 5×10^4 cells/mL in Clonetics EBM/2% FBS/EGF/Bovine brain extract/gentamicin in the absence of hydrocortisone. The following day, compounds of the invention were added in 10 μL/well medium, and the plates were incubated at 37° C. 24 hours after compound addition, TNF (Gibco/BRL) in 10 μL/well medium was added to a final concentration of 5 ng/mL, and the cells were incubated an additional 6 hours at 37° C. Then media was removed, and the plates were washed once with D-PBS (Gibco/BRL) and treated with primary antibodies (Becton Dickinson, City), 100 μL/well in D-PBS/2% BSA (Sigma)/0.01% azide. Primary antibodies at an initial concentration of 1 mg/mL were used at the following dilutions: anti-ELAM-1, 1:2000, anti-ICAM-1, 1:2000 and anti-VACM-1, 1:3000. Plates were stored overnight at 4° C., washed 3 times with D-PBS, and treated with secondary antibody (Jackson Labs), 100 μL/well 1:8000 dilution HRP-conjugated donkey anti-mouse IgG(H+L) in D-PBS/2%BSA. Plates were incubated a minimum of 1 hour at room temperature, washed 3 times with D-PBS and treated with 100 μL of orhto-phenylene diamine-2 HCl reagent per well. Plates were developed approximately 15 minutes and neutralized with 100 μL/well 1N sulfuric acid. Absorbance was read at 490 nm.
In general terms: An ELISA detects its analyte on a solid surface through an enzyme-linked reagent.

Another data set relates to E-Selectin. Description: CAM ELISA: E-selectin expression on TNF-stimulated HUVECs. To be noted: 1 μM compound, primary human umbilical vein endothelial cells, compound 24 hours, then TNF 5 ng/mL 6 hours; for inhibition at 1 µM: Homo sapiens, Endothelial cell. Type of data set: cell-based. The method, then:
as §1

The next data set relates to ICAM-1. Description: CAM ELISA: ICAM-1 expression on TNF-stimulated HUVECs. To be noted: 1 μM compound, primary human umbilical vein endothelial cells, compound 24 hours, then TNF 5 ng/mL 6 hours; for inhibition at 1 µM: Homo sapiens, Endothelial cell. It is filed as cell-based. The method, then:
as §1

The inhibition is the drop in the measured response relative to a control, in per cent. Usually melting point stands for the temperature, or range, at which the solid turns liquid. The molecule `Cc1ccc(Sc2ncnc3c(C)c(C(N)=O)sc23)cc1` [Example 16, 7-methyl-4-[(4-methylphenyl)thio]thieno[3,2-d]pyrimidine-6-carboxamide] returned a melting point of 243 to 246 °C. Besides, in the data set on VCAM-1, the inhibition at 1 µM was 19%. At 1 µM the inhibition in the data set with E-Selectin was 35%. 1 µM produced 32% inhibition with ICAM-1.
Taken in the same sequence, the figures for `NC(=O)c1cc2c(Sc3ccccn3)cncc2s1` [Example 20, 4-(2-pyridinylthio)thieno[2,3-c]pyridine-2-carboxamide] were 239 to 242 °C, 26%, 55% and 46%.
Taken in the same sequence, the figures for `NC(=O)c1cc2c(SCc3ccc(Cl)cc3)cncc2s1` [Example 54, 4-[[(4-chlorophenyl)methyl]thio]thieno[2,3-c]pyridine-2-carboxamide] were 198 to 199 °C, 33%, 74% and 59%.
Taken in the same sequence, the figures for `OCc1cc2c(Oc3ccc(Cl)cc3)cncc2s1` [Example 90, 4-(4-chlorophenoxy)thieno[2,3-c]pyridine-2-methanol] were 90 to 91 °C, 27%, 47% and 51%.
In the case of `NNC(=O)c1cc2c(Oc3ccc(C(F)(F)F)cc3)cncc2s1` [Example 158, 4-[4-(Trifluoromethyl)phenoxy]thieno[2,3-c]pyridine-2-carbohydrazide], the melting point was 146 to 147 °C. In the data set with VCAM-1, this molecule gave an inhibition at 1 µM of 26%. Moreover, the inhibition at 1 µM with E-Selectin came out at 61%. In the data set with ICAM-1, this molecule returned an inhibition at 1 µM of 65%.
For `CCOCCOCCOCC1(c2ccc(Oc3cncc4sc(-c5nnc(N)o5)cc34)cc2)CC1` [Example 228, 5-{4-[4-(1-{[2-(2-Ethoxyethoxy)ethoxy]methyl}cyclopropyl)phenoxy]thieno[2,3-c]pyridin-2-yl}-1,3,4-oxadiazol-2-amine], the melting point is 113 to 114 °C. In the data set on VCAM-1, the “CAM ELISA % Inhibition at 1 μM VCAM-1” value is 52% and at 1 µM the inhibition was 54%. Besides, in the data set with E-Selectin, the “CAM ELISA % Inhibition at 1 μM E-Selectin” value was found to be 67% and the inhibition at 1 µM was determined as 70%. For the same molecule, in the data set with ICAM-1, the “CAM ELISA % Inhibition at 1 μM ICAM-1” value was 64% and 1 µM produced 68% inhibition.
For the molecule `NC(=NO)c1cc2c(Oc3ccc(Cl)cc3)cncc2s1` [Example 249, 4-(4-Chlorophenoxy)-N′-hydroxythieno[2,3-c]pyridine-2-carboximidamide], the melting point is 194 to 196 °C. Also, the inhibition at 1 µM in the data set on VCAM-1 is 61%. This molecule came in with an inhibition at 1 µM in the data set with E-Selectin of 75%. In addition, in the data set on ICAM-1, the inhibition at 1 µM is 69%.
`NC(=O)/C=C/c1cc2c(Oc3ccc(Br)cc3)cncc2s1` [Example 259, (E)-3-[4-(4-Bromophenoxy)thieno[2,3-c]pyridin-2-yl]propenamide] showed a melting point of 195 to 196 °C. Testing at 1 µM in the data set on VCAM-1 gave an inhibition of 57%. Further, in the data set on E-Selectin, the inhibition at 1 µM is 63%. Moreover, the inhibition at 1 µM in the data set with ICAM-1 amounted to 59%.
Taken in the same sequence, the figures for `Nc1ccc(-c2cc3c(Oc4ccc(Cl)cc4)cncc3s2)cn1` [Example 274, 5-[4-(4-Chlorophenoxy)thieno[2,3-c]pyridin-2-yl]-2-pyridinamine] were 208 to 210 °C, 44%, 65% and 71%.
Taken in the same sequence, the figures for `Cc1nc(-c2cc3c(Oc4ccc(Cl)cc4)cncc3s2)no1` [Example 279, 4-(4-Chlorophenoxy)-2-(5-methyl-1,2,4-oxadiazol-3-yl)thieno[2,3-c]pyridine] were 120 to 121 °C, 24%, 30% and 40%.
Taken in the same sequence, the figures for `Cn1c(N)nnc1-c1cc2c(Oc3ccc(Cl)cc3)cncc2s1` [Example 283, 5-[4-(4-Chlorophenoxy)thieno[2,3-c]pyridin-2-yl]-4-methyl-4H-1,2,4-triazol-3-amine] were 233 to 235 °C, 52%, 39% and 57%.
`FC(F)(F)c1nc(-c2cc3c(Oc4ccc(Cl)cc4)cncc3s2)no1` [Example 284, 4-(4-Chlorophenoxy)-2-[5-(trifluoromethyl)-1,2,4-oxadiazol-3-yl]thieno[2,3-c]pyridine] yielded a melting point of 52 to 54 °C. In the data set on VCAM-1, this molecule came in with an inhibition at 1 µM of 45%. In the data set with E-Selectin, 1 µM produced 56% inhibition. The same molecule returned an inhibition at 1 µM in the data set on ICAM-1 of 68%.
For the molecule `Nc1noc(-c2cc3c(Oc4ccc(Cl)cc4)cncc3s2)n1` [Example 285, 5-[4-(4-Chlorophenoxy)thieno[2,3-c]pyridin-2-yl]-1,2,4-oxadiazol-3-amine], the melting point was 217 to 219 °C. Besides, the inhibition at 1 µM in the data set with VCAM-1 worked out at 50%. Besides, the inhibition at 1 µM in the data set on E-Selectin was determined as 56%. In the data set with ICAM-1, this molecule had an inhibition at 1 µM of 65%.
Take `CNc1nnc(-c2cc3c(Oc4ccc(Cl)cc4)cncc3s2)s1` [Example 286, 5-[4-(4-Chlorophenoxy)thieno[2,3-c]pyridin-2-yl]-N-methyl-1,3,4-thiadiazol-2-amine]: the melting point was 226 to 229 °C. In the data set with VCAM-1, this molecule displayed an inhibition at 1 µM of 46%. The same molecule registered an inhibition at 1 µM in the data set on E-Selectin of 54%. This molecule also registered an inhibition at 1 µM in the data set on ICAM-1 of 64%.
In the case of `Cc1nnc(-c2cc3c(Oc4ccc(C(F)(F)F)cc4)cncc3s2)o1` [Example 290, 2-(5-Methyl-1,3,4-oxadiazol-2-yl)-4-[4-(trifluoromethyl)phenoxy]thieno[2,3-c]pyridine], the inhibition at 1 µM in the data set on VCAM-1 was 48%; with E-Selectin it was 42%; with ICAM-1, 53%.
For `CC(C)(C)OC(=O)Nc1csc(-c2cc3c(Oc4ccc(Cl)cc4)cncc3s2)n1` [Example 294, tert-Butyl 2-[4-(4-Chlorophenoxy)thieno[2,3-c]pyridin-2-yl]-1,3-thiazol-4-ylcarbamate], the results for the inhibition at 1 µM with VCAM-1, in the data set with E-Selectin and in the data set with ICAM-1 were 24%, 46% and 45%, respectively.
In the same order, the values of `NC(=O)c1sc2cncc(Cl)c2c1N` [Example 301, 3-Amino-4-chlorothieno[2,3-c]pyridine-2-carboxamide] are 34%, 44% and 48%.
For the molecule `CNC(=O)c1sc2cncc(Oc3ccc(Cl)cc3)c2c1C` [Example 303, 4-(4-Chlorophenoxy)-N, 3-dimethylthieno[2,3-c]pyridine-2-carboxamide], the results for the inhibition at 1 µM with VCAM-1, in the data set with E-Selectin and in the data set with ICAM-1 were 33%, 65% and 66%, respectively.
In the same order, the values of `NC(=O)c1cc2c(Oc3ccc(Cl)cc3)cnc(Cl)c2s1` [Example 311, 7-Chloro-4-(4-chlorophenoxy)thieno[2,3-c]pyridine-2-carboxamide] are 36%, 72% and 77%.
In the same order, the values of `CNC(=O)c1cc2c(Oc3ccc(Cl)cc3)cnc(Cl)c2s1` [Example 312, 7-Chloro-4-(4-chlorophenoxy)-N-methylthieno[2,3-c]pyridine-2-carboxamide] are 42%, 64% and 76%.
As for `NC(=O)c1cc2c(Oc3ccc(Br)cc3)cnc(Cl)c2s1` [Example 316, 4-(4-Bromophenoxy)-7-chlorothieno[2,3-c]pyridine-2-carboxamide], the inhibition at 1 µM in the data set with VCAM-1 came to 42%; in the data set on E-Selectin, 76%; in the data set on ICAM-1 it was 68%.
Consider `O=C(NCCO)c1cc2c(Oc3ccc(C(F)(F)F)cc3)cnc(Cl)c2s1` [Example 320], for which the “CAM ELISA % Inhibition at 1 μM VCAM-1” value with VCAM-1 came to 55%. In the data set on E-Selectin, the “CAM ELISA % Inhibition at 1 μM E-Selectin” value was 64%. Moreover, the “CAM ELISA % Inhibition at 1 μM ICAM-1” value in the data set with ICAM-1 is given as 67%.
Taken in the same sequence, the figures for `CNC(=O)c1nc2cncc(Oc3ccc(C)cc3)c2s1` [Example 325] were 42%, 76% and 68%.
With `NC(=O)c1cc2c(C=Cc3ccccc3)cncc2s1` [Example 329, 4-(2-Phenylethenyl)thieno[2,3-c]pyridine-2-carboxamide], the inhibition at 1 µM amounted to 64% with VCAM-1, 72% in the data set on E-Selectin and 62% in the data set with ICAM-1.
Taken in the same sequence, the figures for `NC(=O)c1cc2c(Oc3ccc(Cl)cc3)c(Cl)ncc2s1` [Example 340, 5-Chloro-4-(4-chlorophenoxy)thieno[2,3-c]pyridine-2-carboxamide] were 20%, 18% and 33%.
